Reference: publication PMC7316994, “In Vitro Pharmacological Profile of a New Small Molecule Bradykinin B2 Receptor Antagonist” (Frontiers in Pharmacology, 2020)

How the values were obtained:
Bradykinin B1 = biological target: T1, Bradykinin B1 (Homo sapiens, UniProt P46663); test: radioligand binding (Table S2)
T1 construct: host or cells: CHO cells

Histamine H2 = biological target: T2, Histamine H2 (Homo sapiens, UniProt P25021); test: radioligand binding (Table S2); details: [125I] APT, Human recombinant CHO cells
T2 construct: host or cells: CHO cells

C5a = biological target: T3, C5a (Homo sapiens, UniProt P21730); test: functional assay, cAMP HTRF, HEK-293 cells (Table S2); assay type: cell-based
T3 construct: expressed in transfected cells; host or cells: HEK-293 cells

Histamine H1 = biological target: T4, Histamine H1 (Homo sapiens, UniProt P35367); test: radioligand binding (Table S2); details: [3H] Pyrilamine, Human recombinant HEK-293 cells
T4 construct: host or cells: HEK-293 cells

[1] = biological target: Calcitonin gene related peptide CGRP (Homo sapiens, UniProt O60894+Q16602); test: radioligand binding (Table S2); details: [125I] hCGRPα, Human recombinant CHO cells
Neuropeptide Y1 = biological target: T5, Neuropeptide Y1 (Homo sapiens, UniProt P25929); test: radioligand binding (Table S2); details: [125I] Peptide YY, SK-N-MC cells (endogenous)
T5 construct: (endogenous); host or cells: SK-N-MC cells

Orexin OX2 = biological target: T6, Orexin OX2 (Homo sapiens, UniProt O43614); test: radioligand binding (Table S2); details: [125I] Orexin A, Human recombinant HEK-293 cells
T6 construct: host or cells: HEK-293 cells

Muscarinic M1 = Muscarinic M1 (Homo sapiens, UniProt P11229); test: radioligand binding (Table S2); details: read-out: % Inhibition @ 10 µM
PDGFRα kinase = biological target: T7, PDGFRα kinase (Homo sapiens, UniProt P16234); test: enzyme assay (Table S2); assay type: biochemical; details: ATP + Ulight-TK peptide (100 nM), LANCE
T7 construct: Eurofins (assay provider)

[2] = tested on: Muscarinic, oxotremorine M; test: radioligand binding (Table S2); details: [3H] Oxotremorine M, Wistar rat cerebral cortex
Vasopressin V1a = biological target: T8, Vasopressin V1a (Homo sapiens, UniProt P37288); test: functional assay, intracellular [Ca2+], CHO cells (Table S2); assay type: cell-based; details: AVP (10 nM)
T8 construct: host or cells: CHO cells

Prostanoid EP4 = biological target: T9, Prostanoid EP4 (Homo sapiens, UniProt P35408); test: radioligand binding (Table S2); details: [3H] Prostaglandin E2, Human recombinant Chem-1 cells
T9 construct: host or cells: Chem-1 cells

5-HT2A receptor = biological target: T10, 5-HT2A receptor (Homo sapiens, UniProt P28223); test: umbilical vein, serotonin-induced contraction; details: Compound 2 10 μM; Compound 3 1 μM
T10 construct: other endogenously expressed receptors in the human umbilical vein; from tissue; host or cells: human umbilical vein rings
Excerpt: The local ethics committee (CHU de Québec-Université Laval) had approved the project (File no. 2017-3720). Umbilical cords were obtained following elective caesarean sections; all problematic deliveries are excluded. Informed consent was obtained from the mothers. The cords were transported from the maternity ward to the laboratory in sterile Hank's balanced salt solution containing penicillin and streptomycin. Segments of umbilical veins were dissected carefully from the cords and a metal rod was inserted in the lumen. Excess connective tissue was excised and rings (2–3 mm wide) were cut. Rings of umbilical veins were suspended in 5-mL organ chambers containing oxygenated (95% O2, 5% CO2) and warmed (37°C) Krebs' solution between a metal hook and a thread loop. This solution had the following composition: NaCl 117.5 mM, KCl 4.7 mM, KH2PO4 1.2 mM, MgSO4 1.18 mM, CaCI2 2.5 mM, NaHCO3 25.0 mM, and D-glucose 5.5 mM. A baseline of one gram-weight was applied to these preparations. Changes of tension were recorded by using isometric transducers (model 52-9545, Harvard Bioscience, South Natick MA). Eight tissue baths are operated in parallel.
For this purpose, contractile responses to serotonin, acting on the 5-HT2A receptor, and U-46619, acting at the prostanoid TP receptor, were measured ([Rogines-Velo et al., 2002]; [Daray et al., 2003]).

[3] = tested on: Glutamate, NMDA, phencyclidine; test: radioligand binding (Table S2); details: [3H] TCP, Wistar rat cerebral cortex
Adrenergic β3 = Adrenergic β3 (Homo sapiens, UniProt P13945); test: radioligand binding (Table S2); details: read-out: % Inhibition @ 10 µM
PKCα = PKCα (Homo sapiens, UniProt P17252); test: enzyme assay (Table S2); assay type: biochemical; details: HTRF
IRK (InsR) = biological target: T11, IRK (InsR) (Homo sapiens, UniProt P06213); test: enzyme assay (Table S2); assay type: biochemical; details: ATP + Ulight-PolyGAT (50 nM), LANCE
T11 construct: Eurofins (assay provider)

[4] = biological target: T12, Benzodiazepine BZD (peripheral) (Rattus norvegicus, UniProt P16257); test: radioligand binding (Table S2)
T12 construct: tissue Eurofins; host or cells: rat heart

rat B2 receptor = biological target: T13, rat B2 receptor (Rattus norvegicus, UniProt P25023); test: Ca^2+ mobilization assay, HEK293T cells; assay type: cell-based; details: BK at EC80 4.32 nM
T13 construct: host or cells: HEK293T cells
T13 sequence (P25023 1-396): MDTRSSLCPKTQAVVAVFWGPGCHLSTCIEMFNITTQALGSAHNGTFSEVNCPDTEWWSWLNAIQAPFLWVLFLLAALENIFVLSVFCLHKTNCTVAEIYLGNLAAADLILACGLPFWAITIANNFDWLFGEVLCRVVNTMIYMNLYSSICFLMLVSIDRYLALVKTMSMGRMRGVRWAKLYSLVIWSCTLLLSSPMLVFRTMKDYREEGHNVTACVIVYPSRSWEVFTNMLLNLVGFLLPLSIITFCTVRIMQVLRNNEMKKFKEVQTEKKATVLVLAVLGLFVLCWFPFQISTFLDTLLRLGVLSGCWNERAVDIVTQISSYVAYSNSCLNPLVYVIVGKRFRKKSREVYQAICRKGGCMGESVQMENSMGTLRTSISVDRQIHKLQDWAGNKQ

Somatostatin sst5 = Somatostatin sst5 (Homo sapiens, UniProt P35346); test: radioligand binding (Table S2); details: [125I] Tyr11-Somatostatin 14, Human recombinant Chem-1 cells
Sequence of Somatostatin sst5 (P35346 whole entry): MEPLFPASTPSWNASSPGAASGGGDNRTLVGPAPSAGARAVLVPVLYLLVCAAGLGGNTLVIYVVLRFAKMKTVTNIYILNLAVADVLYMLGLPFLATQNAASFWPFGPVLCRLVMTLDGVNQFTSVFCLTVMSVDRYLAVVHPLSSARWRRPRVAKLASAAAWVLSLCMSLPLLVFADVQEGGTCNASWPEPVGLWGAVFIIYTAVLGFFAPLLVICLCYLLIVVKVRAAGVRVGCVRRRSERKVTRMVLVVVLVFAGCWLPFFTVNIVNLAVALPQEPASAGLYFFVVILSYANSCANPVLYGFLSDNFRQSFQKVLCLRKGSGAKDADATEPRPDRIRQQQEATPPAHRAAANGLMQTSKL

T8 sequence (P37288 whole entry): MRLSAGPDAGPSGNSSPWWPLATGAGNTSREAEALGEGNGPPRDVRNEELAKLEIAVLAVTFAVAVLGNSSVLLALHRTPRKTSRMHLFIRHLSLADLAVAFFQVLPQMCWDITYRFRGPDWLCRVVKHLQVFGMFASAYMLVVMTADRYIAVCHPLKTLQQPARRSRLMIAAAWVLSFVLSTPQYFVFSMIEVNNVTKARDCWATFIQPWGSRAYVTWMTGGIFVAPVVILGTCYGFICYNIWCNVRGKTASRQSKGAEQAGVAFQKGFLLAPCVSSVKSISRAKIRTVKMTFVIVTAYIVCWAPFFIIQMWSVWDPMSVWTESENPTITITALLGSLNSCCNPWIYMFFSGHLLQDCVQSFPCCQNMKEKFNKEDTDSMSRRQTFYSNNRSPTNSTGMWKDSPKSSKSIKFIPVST
T3 sequence (P21730 whole entry): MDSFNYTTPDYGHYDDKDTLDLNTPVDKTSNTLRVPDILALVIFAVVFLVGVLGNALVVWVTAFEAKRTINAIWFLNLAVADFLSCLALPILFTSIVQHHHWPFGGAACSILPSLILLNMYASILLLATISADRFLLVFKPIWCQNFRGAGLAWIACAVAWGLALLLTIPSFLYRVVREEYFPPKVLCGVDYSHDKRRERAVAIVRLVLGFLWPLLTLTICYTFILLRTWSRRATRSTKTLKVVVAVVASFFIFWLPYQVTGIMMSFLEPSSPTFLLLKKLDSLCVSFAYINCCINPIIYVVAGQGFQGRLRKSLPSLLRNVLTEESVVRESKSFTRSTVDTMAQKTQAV
T6 sequence (O43614 whole entry): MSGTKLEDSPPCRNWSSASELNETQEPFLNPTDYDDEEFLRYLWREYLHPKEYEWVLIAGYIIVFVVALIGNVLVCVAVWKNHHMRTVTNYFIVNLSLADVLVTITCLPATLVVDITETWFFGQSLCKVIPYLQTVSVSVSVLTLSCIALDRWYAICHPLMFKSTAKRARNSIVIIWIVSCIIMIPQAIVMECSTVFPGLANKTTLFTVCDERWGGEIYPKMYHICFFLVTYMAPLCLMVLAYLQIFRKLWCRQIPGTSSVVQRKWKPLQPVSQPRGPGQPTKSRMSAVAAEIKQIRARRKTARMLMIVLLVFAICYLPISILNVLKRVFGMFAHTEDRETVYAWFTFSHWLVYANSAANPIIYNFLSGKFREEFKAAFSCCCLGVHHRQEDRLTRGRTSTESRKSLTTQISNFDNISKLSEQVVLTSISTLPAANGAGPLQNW
Sequence of Adrenergic β3 (P13945 whole entry): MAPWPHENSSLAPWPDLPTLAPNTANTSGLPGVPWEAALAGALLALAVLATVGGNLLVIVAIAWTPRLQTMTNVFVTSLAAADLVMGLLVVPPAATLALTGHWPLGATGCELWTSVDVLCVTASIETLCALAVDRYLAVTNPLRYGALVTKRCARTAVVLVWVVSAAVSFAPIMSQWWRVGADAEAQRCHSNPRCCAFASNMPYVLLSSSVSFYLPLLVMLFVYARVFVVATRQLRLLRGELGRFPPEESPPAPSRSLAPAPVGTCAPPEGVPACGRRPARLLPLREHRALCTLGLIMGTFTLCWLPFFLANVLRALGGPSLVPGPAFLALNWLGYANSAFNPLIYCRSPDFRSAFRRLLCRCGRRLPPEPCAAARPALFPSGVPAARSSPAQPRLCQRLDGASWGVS
T9 sequence (P35408 whole entry): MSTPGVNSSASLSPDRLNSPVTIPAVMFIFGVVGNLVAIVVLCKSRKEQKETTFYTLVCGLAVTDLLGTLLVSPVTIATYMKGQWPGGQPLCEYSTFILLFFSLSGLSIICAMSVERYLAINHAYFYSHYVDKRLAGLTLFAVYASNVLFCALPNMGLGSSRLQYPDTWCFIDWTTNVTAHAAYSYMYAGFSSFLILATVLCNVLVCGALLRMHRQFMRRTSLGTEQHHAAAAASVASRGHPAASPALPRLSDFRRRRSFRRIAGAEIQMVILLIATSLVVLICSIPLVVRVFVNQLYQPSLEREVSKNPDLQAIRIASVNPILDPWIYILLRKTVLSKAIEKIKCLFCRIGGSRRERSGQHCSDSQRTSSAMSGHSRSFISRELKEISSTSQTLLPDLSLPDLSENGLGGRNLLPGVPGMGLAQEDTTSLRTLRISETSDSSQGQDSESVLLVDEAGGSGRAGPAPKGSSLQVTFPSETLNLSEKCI
T4 sequence (P35367 whole entry): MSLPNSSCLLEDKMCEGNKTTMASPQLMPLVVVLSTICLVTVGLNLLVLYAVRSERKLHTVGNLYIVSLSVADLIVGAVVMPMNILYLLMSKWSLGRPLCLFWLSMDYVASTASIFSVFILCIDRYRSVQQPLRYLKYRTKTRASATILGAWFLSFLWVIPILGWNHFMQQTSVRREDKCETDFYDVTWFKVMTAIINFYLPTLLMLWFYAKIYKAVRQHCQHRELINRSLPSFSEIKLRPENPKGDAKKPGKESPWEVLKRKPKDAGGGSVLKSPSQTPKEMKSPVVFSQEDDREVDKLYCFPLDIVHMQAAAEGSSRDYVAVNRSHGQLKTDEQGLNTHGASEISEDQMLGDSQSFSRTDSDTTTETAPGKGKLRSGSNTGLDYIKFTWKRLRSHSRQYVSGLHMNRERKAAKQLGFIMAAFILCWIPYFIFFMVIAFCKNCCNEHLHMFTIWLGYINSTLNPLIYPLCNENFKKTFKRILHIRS
T10 sequence (P28223 whole entry): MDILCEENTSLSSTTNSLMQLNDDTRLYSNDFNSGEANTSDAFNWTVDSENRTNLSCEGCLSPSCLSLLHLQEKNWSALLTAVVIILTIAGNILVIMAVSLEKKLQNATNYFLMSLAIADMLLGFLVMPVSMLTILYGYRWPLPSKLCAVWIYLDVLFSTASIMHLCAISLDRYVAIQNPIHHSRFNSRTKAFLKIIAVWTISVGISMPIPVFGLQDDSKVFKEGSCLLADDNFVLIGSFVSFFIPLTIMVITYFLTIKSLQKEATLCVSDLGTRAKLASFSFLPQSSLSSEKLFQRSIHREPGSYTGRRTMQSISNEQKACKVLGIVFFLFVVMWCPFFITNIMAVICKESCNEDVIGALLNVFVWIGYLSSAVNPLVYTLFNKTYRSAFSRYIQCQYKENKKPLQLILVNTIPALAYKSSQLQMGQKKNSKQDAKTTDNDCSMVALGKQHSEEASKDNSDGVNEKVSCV
T11 sequence (P06213 28-1382): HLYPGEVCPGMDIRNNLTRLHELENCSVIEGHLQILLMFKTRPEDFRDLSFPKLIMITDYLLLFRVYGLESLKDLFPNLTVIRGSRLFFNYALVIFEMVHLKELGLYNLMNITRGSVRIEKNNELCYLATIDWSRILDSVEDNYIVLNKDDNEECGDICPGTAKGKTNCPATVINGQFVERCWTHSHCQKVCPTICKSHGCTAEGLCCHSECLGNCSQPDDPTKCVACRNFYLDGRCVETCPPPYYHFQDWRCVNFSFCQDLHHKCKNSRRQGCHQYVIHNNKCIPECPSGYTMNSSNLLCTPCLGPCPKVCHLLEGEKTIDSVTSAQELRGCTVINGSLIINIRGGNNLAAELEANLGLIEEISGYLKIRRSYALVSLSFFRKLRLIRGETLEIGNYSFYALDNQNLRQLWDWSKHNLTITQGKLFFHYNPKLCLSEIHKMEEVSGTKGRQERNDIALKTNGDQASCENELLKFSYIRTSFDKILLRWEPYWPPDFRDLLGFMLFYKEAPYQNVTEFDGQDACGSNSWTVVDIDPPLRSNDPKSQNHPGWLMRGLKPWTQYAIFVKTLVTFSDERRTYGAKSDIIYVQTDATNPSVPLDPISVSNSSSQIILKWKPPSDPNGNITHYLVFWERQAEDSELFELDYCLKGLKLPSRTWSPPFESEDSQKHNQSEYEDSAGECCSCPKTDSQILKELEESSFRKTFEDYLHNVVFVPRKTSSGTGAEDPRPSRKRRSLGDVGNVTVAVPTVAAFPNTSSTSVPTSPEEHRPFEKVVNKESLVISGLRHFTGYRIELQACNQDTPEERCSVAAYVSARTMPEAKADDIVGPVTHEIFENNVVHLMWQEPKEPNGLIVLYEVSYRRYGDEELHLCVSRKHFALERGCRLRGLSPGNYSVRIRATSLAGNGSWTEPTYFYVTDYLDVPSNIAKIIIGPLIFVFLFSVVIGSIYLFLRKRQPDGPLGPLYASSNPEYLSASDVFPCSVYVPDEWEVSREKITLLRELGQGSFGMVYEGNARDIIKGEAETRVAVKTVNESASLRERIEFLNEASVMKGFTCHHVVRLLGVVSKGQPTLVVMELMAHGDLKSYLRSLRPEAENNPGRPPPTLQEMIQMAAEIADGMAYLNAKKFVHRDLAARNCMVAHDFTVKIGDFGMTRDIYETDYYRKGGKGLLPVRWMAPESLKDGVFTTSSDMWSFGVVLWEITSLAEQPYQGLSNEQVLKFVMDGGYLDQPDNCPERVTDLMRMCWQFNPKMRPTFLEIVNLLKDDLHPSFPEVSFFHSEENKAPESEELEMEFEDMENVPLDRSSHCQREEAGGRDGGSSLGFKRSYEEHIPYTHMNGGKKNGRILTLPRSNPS

Cc1cc(-c2ncnn2C)c2cccc(OCc3c(Cl)cc(F)cc3[C@H](C)NC(=O)COC(F)F)c2n1 [Compound 3, (S)-N-(1-(3-chloro-5-fluoro-2-((2-methyl-4-(1-methyl-1H-1,2,4-triazol-5-yl)quinolin-8-yloxy)methyl)phenyl)ethyl)-2-(difluoromethoxy)acetamide]
inhibition at 10 µM (Bradykinin B1): 0.5% | inhibition at 10 µM (Histamine H2): -26.5% | inhibition at 10 µM (C5a; HEK293, read-out: % inhibition of reference agonist response @ 10 µM (antagonist effect), hC5a (10 nM)): -0.2% | % of reference agonist response @ 10 µM (agonist effect) (C5a; reference hC5a (100 nM)): -18.1% | inhibition at 10 µM (Histamine H1): 2.5% | inhibition at 10 µM [1]: -26.1% | inhibition at 10 µM (Neuropeptide Y1): -2.6% | inhibition at 10 µM (Orexin OX2): 25.9% | inhibition at 10 µM (Muscarinic M1): 3.7% | inhibition at 10 µM (PDGFRα kinase): -2.6% | % Inhibition @ 10 µM [2]: 18% | IC50 (Vasopressin V1a; read-out: IC50 (µM), functional antagonism): 9.1 µM | Kb (Vasopressin V1a; read-out: Kb (µM), functional antagonism): 0.31 µM | inhibition at 10 µM (Vasopressin V1a; CHO, read-out: % inhibition of reference agonist response @ 10 µM (antagonist effect), 10 µM): 51.9% | inhibition at 10 µM (Prostanoid EP4): 3% | effect on serotonin-induced contraction (5-HT2A receptor): Lack of antagonist effect | % Inhibition @ 10 µM [3]: -2% | inhibition at 10 µM (Adrenergic β3): 8.1% | inhibition at 10 µM (PKCα): 1.4% | inhibition at 10 µM (IRK (InsR)): -17.3% | inhibition at 10 µM [4]: 42.3% | IC50 (rat B2 receptor): 1030 nM | Kb (rat B2 receptor): 147 nM | inhibition at 10 µM (Somatostatin sst5): 2%
